Measured values published in patent publication US20160159861A1, “APJ Receptor Compounds” (priority 2013, published 2016).
Like-named read-outs stand apart in the source and are kept apart here. Peptide text beside a SMILES is read from it.

Assays:
Assay type in all cases: cell-based
[1] = biological target: T1, human APJ receptor (hAPJ) (Homo sapiens, UniProt P35414); assay: HTRF cAMP assay: inhibition of NKH477-stimulated cAMP in HEK cells stably expressing hAPJ; details: for Emax: HEK293, read-out: % IA, bound stated; for % IA (cAMP inhibition, hAPJ HEK): intrinsic activity; for Ranking: composite class of EC50 (hAPJ), % IA and % histamine or formal (+) charge; for inhibition of NKH477-stimulated increase in cAMP, dose dependent: concentration response curves, FIGS. 1 and 2, HEK cells stably expressing APJ
T1 construct: expressed in transfected cells
T1 sequence (P35414 1-380): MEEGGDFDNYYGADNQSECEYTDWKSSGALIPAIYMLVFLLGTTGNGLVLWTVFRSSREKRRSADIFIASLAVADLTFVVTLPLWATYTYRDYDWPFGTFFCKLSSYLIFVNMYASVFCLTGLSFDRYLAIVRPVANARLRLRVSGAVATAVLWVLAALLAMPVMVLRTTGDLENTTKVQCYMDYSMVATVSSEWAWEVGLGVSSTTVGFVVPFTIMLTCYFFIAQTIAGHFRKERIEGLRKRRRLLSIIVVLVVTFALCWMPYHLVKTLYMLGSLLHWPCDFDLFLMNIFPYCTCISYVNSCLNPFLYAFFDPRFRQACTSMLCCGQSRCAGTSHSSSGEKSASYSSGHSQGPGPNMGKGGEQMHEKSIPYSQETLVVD
How it was run: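 HEK cells stably expressing hAPJ, induced with 1 nG/mL doxycycline and seeded overnight at 40 k/well. cAMP read by HTRF competitive immunoassay using cryptate-labeled anti-cAMP antibody and d2-labeled cAMP.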

[2] = test system: rat peritoneal cells; assay: Ex vivo histamine release assay in rat peritoneal cells (vs. Compound 48/80)
How it was run: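 Resident peritoneal cells were lavaged from male Sprague Dawley rats and kept in HBSS/20 mM HEPES/0.2% BSA at 25,000 cells/well. They were exposed for 30 min at room temperature to compound at 3 points (100, 10, 1 μM DMSO stocks, 1% DMSO final). Released histamine was measured by HTRF and normalised to total histamine after Triton lysis. Compound 48/80 was the reference.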

[3] = biological target: T2, APJ receptor (Homo sapiens, UniProt P35414); assay: DiscoveRx PathHunter β-arrestin recruitment assay; details: for β-arrestin recruitment: dose dependent chemiluminescence, FIGS. 3A-3B; for Emax: read-out: β-arrestin Signaling Max Response
T2 sequence (P35414 1-380): T1 sequence (P35414 1-380)
From the text: Activation of the β-Arrestin signaling pathway was monitored using the commercially available DiscoveRx PathHunter® assay. This assay employs a homogenous, non-imaging assay format called Enzyme Fragment Complementation (EFC) using β-galactosidase (β-Gal) as the functional reporter. […] EA is fused to β-Arrestin and ED is fused to the GPCR of interest. When the GPCR is activated and β-Arrestin is recruited to the receptor, ED and EA complementation occurs, restoring βGal activity which is measured using chemiluminescent PathHunter® Detection Reagent.

[4] = biological target: CXCR4 receptor (Homo sapiens, UniProt P61073); assay: Activity at CXCR4 receptor (selectivity, Gi-coupled GPCR); details: FIGS. 6A-6C, selectivity vs. hAPJ
[5] = biological target: T2, APJ receptor; assay: Cellul'erk ERK phosphorylation assay in APJ-TREX cells; set-up: expressed in transfected cells; host or cells: Human TRex (APJ-TREX) cells, doxycycline-inducible expression; details: relative to max pyr-apelin-13 activity at 100 nM; 3 or 0.3 μM compound, 5 minutes
Protocol: Experiments were performed to test activation of the ERK and p38 pathways using the Cellul'erk and the Phospho-p38 MAPK (Thr180/Tyr182) assay kits (Cisbio). APJ-TREX cells were optimized for signaling (pre-serum starved overnight with low FBS serum (2% FBS media) with 1 ng/ml doxycyclin (for induction of APJ receptor expression), 50,000 cells, 5 minutes agonist activation for ERK activity). Cells were pretreated with 3 or 0.3 μM pepducin compound for 5 minutes and the reaction was stopped by lysis buffer. Lysates are then transferred to the assay plate for the detection of phosphorylated ERK or p38 by HTRF reagents.

[6] = EC50 (cAMP inhibition, hAPJ HEK), Table 6, hAPJ HEK cells, NKH477-stimulated cAMP
[7] = EC50 (hAPJ), inhibition of cAMP production, bound stated, HTRF cAMP Assay, per data of Table 6
[8] = HTRF cAMP Assay, per data of Table 6
[9] = histamine release from rat peritoneal cells relative to Compound 48/80
[10] = HTRF cAMP Assay, per data of Table 6, read-out: EC50 (hAPJ), inhibition of cAMP production, bound stated
[11] = Table 6, hAPJ HEK cells, NKH477-stimulated cAMP, read-out: EC50 (cAMP inhibition, hAPJ HEK)

Sequence of CXCR4 receptor (P61073 whole entry): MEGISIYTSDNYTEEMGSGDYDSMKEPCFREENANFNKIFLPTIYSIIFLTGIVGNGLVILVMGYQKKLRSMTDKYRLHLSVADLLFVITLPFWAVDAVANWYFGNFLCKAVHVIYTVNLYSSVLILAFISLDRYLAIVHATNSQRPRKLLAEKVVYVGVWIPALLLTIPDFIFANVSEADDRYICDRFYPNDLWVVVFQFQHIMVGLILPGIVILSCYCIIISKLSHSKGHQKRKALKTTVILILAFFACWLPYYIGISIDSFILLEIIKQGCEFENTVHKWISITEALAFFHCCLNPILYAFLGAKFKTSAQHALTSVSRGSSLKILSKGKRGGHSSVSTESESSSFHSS

| SMILES | EC50 [1, 6] [nM] | EC50 [1, 7] [nM] | Emax [1, 8] [%] | % IA (cAMP inhibition, hAPJ HEK) ([1]; Table 6, hAPJ HEK cells) [%] | Ranking [1] | Histamine (% vs. 48/80) [2, 9] [%] | EC50 [3] [nM] | β-arrestin recruitment [3] | Emax [3] [%] | EC50 [1, 10] [nM] | EC50 [1, 11] [nM] | inhibition of NKH477-stimulated increase in cAMP, dose dependent [1] | activity at the CXCR4 receptor [4] | Average % Activity (ERK agonist activity) [5] [%] | Histamine (% vs. 48/80) [2] [%] | EC50 ([3]; PathHunter chemiluminescence, read-out: β-arrestin Signaling EC50) [nM] |
| --- | --- | --- | --- | --- | --- | --- | --- | --- | --- | --- | --- | --- | --- | --- | --- | --- |
| CCCCCCCCCCCCCCCC(=O)N1CCC[C@H]1C(=O)N[C@H](C(=O)N[C@H](C(=O)N[C@@H](Cc1ccccc1)C(=O)N[C@@H](CCCNC(=N)N)C(=O)N[C@@H](CO)C(=O)N1CCC[C@H]1C(=O)N[C@@H](CO)C(=O)N[C@@H](CCC(=O)O)C(=O)N[C@H](CCCCN)C(=O)N[C@@H](CCCNC(=N)N)C(=O)N[C@@H](CCCNC(=N)N)C(=O)N[C@@H](CO)C(=O)N[C@@H](C)C(=O)N[C@@H](CC(=O)O)C(=O)N[C@H](C(=O)N[C@@H](Cc1ccccc1)C(=O)N[C@H](C(N)=O)[C@@H](C)CC)[C@@H](C)CC)C(C)C)[C@@H](C)O [Compound 3] (HELM PEPTIDE1{[CCCCCCCCCCCCCCCC(=O)[*:2]].P.T.V.F.R.S.P.S.E.[dK].R.R.S.A.D.I.F.I.[am]}$$$$V2.0) | 13 | ≤ 25 | ≥ 80 | 90 | **** (EC50≦25 nM (hAPJ), % IA≧80% and either % histamine>35% or formal (+) charge>1) | 64 | 8.2 | weakly engaged | 11 |  |  |  |  |  |  |  |
| CCCCCCCCCCCCCCCC(=O)N[C@H](C(=O)N[C@H](C(=O)N[C@@H](Cc1ccccc1)C(=O)N[C@@H](CCCNC(=N)N)C(=O)N[C@@H](CO)C(=O)N[C@@H](CCC(=O)O)C(=O)N[C@H](CCCCN)C(=O)N[C@@H](CCCNC(=N)N)C(=O)N[C@@H](CCCNC(=N)N)C(=O)N[C@@H](CO)C(=O)N[C@@H](C)C(=O)N[C@@H](CC(=O)O)C(=O)N[C@@H](CCC(N)=O)C(=O)N[C@@H](Cc1ccccc1)C(=O)N[C@H](C(N)=O)[C@@H](C)CC)C(C)C)[C@@H](C)O [Compound 14] (HELM PEPTIDE1{[CCCCCCCCCCCCCCCC(=O)[*:2]].T.V.F.R.S.E.[dK].R.R.S.A.D.Q.F.I.[am]}$$$$V2.0) |  |  | ≥ 80 | 87 | **** (EC50≦25 nM (hAPJ), % IA≧80% and either % histamine>35% or formal (+) charge>1) |  |  |  |  | ≤ 25 | 8 | inhibited | lack of dose-responsive activity | 58.2 |  |  |
| CCCCCCCCCCCCCCCC(=O)N[C@H](C(=O)N[C@H](C(=O)N[C@@H](Cc1ccccc1)C(=O)N[C@@H](CCCNC(=N)N)C(=O)N[C@@H](CO)C(=O)N[C@@H](CO)C(=O)N[C@@H](CCC(=O)O)C(=O)N[C@H](CCCCN)C(=O)N[C@@H](CCCNC(=N)N)C(=O)N[C@@H](CCCNC(=N)N)C(=O)N[C@@H](CO)C(=O)N[C@@H](C)C(=O)N[C@@H](CC(=O)O)C(=O)N[C@@H](CC(N)=O)C(=O)N[C@@H](Cc1ccccc1)C(=O)N[C@H](C(N)=O)[C@@H](C)CC)C(C)C)[C@@H](C)O [Compound 18] (HELM PEPTIDE1{[CCCCCCCCCCCCCCCC(=O)[*:2]].T.V.F.R.S.S.E.[dK].R.R.S.A.D.N.F.I.[am]}$$$$V2.0) |  |  | ≥ 80 | 117 | **** (EC50≦25 nM (hAPJ), % IA≧80% and either % histamine>35% or formal (+) charge>1) |  |  |  |  | ≤ 25 | 15 | inhibited | lack of dose-responsive activity |  |  |  |
| CCCCCCCCCCCCCCCC(=O)N[C@H](C(=O)N[C@H](C(=O)N[C@@H](Cc1ccccc1)C(=O)N[C@@H](CCCNC(=N)N)C(=O)N[C@@H](CO)C(=O)N[C@@H](CO)C(=O)N1CCC[C@H]1C(=O)N[C@@H](CCC(=O)O)C(=O)N[C@H](CCCCN)C(=O)N[C@@H](CCCNC(=N)N)C(=O)N[C@@H](CCCNC(=N)N)C(=O)N[C@@H](CO)C(=O)N[C@@H](C)C(=O)N[C@@H](CC(=O)O)C(=O)N[C@H](C(=O)N[C@@H](Cc1ccccc1)C(=O)N[C@H](C(N)=O)[C@@H](C)CC)[C@@H](C)CC)C(C)C)[C@@H](C)O [Compound 25] (HELM PEPTIDE1{[CCCCCCCCCCCCCCCC(=O)[*:2]].T.V.F.R.S.S.P.E.[dK].R.R.S.A.D.I.F.I.[am]}$$$$V2.0) | 15 | ≤ 25 | ≥ 80 | 138 | **** (EC50≦25 nM (hAPJ), % IA≧80% and either % histamine>35% or formal (+) charge>1) | 51 | 3.1 | weakly engaged | 12.6 |  |  | inhibited |  | 25.5 |  |  |
| CCCCCCCCCCCCCCCC(=O)N[C@H](C(=O)N[C@H](C(=O)N[C@@H](Cc1ccccc1)C(=O)N[C@@H](CCCNC(=N)N)C(=O)N[C@@H](CO)C(=O)N[C@@H](CO)C(=O)N1CCC[C@H]1C(=O)N[C@@H](CCC(=O)O)C(=O)N[C@H](CCCCN)C(=O)N[C@@H](CCCNC(=N)N)C(=O)N[C@@H](CCCNC(=N)N)C(=O)N[C@@H](CO)C(=O)N[C@@H](C)C(=O)N[C@@H](CC(=O)O)C(=O)N[C@H](C(=O)N[C@@H](Cc1ccccc1)C(=O)N1CCC[C@H]1C(N)=O)[C@@H](C)CC)C(C)C)[C@@H](C)O [Compound 26] (HELM PEPTIDE1{[CCCCCCCCCCCCCCCC(=O)[*:2]].T.V.F.R.S.S.P.E.[dK].R.R.S.A.D.I.F.P.[am]}$$$$V2.0) |  |  | ≥ 80 | 105 | **** (EC50≦25 nM (hAPJ), % IA≧80% and either % histamine>35% or formal (+) charge>1) |  |  | weakly engaged | 46 | ≤ 25 | 11 | inhibited |  |  | 73 | 59.6 |
| CCCCCCCCCCCCCCCC(=O)N[C@H](C(=O)N[C@H](C(=O)N[C@@H](Cc1ccccc1)C(=O)N[C@@H](CCCNC(=N)N)C(=O)N[C@@H](CO)C(=O)N[C@@H](CO)C(=O)N[C@@H](CCC(=O)O)C(=O)N1CCC[C@H]1C(=O)N[C@H](CCCCN)C(=O)N[C@@H](CCCNC(=N)N)C(=O)N[C@@H](CCCNC(=N)N)C(=O)N[C@@H](CO)C(=O)N[C@@H](C)C(=O)N[C@@H](CC(=O)O)C(=O)N[C@H](C(=O)N[C@@H](Cc1ccccc1)C(=O)N[C@H](C(N)=O)[C@@H](C)CC)[C@@H](C)CC)C(C)C)[C@@H](C)O [Compound 27] (HELM PEPTIDE1{[CCCCCCCCCCCCCCCC(=O)[*:2]].T.V.F.R.S.S.E.P.[dK].R.R.S.A.D.I.F.I.[am]}$$$$V2.0) | 7 | ≤ 25 | ≥ 80 | 105 | **** (EC50≦25 nM (hAPJ), % IA≧80% and either % histamine>35% or formal (+) charge>1) | 67 | 8.1 | weakly engaged | 23.7 |  |  | inhibited |  |  |  |  |
| CCCCCCCCCCCCCCCC(=O)N[C@H](C(=O)N[C@H](C(=O)N[C@@H](Cc1ccccc1)C(=O)N[C@@H](CCCNC(=N)N)C(=O)N[C@@H](CO)C(=O)N[C@@H](CO)C(=O)N[C@@H](CCC(=O)O)C(=O)N1CCC[C@H]1C(=O)N[C@H](CCCCN)C(=O)N[C@@H](CCCNC(=N)N)C(=O)N[C@@H](CCCNC(=N)N)C(=O)N[C@@H](CO)C(=O)N[C@@H](C)C(=O)N[C@@H](CC(=O)O)C(=O)N[C@H](C(=O)N[C@@H](Cc1ccccc1)C(=O)N1CCC[C@H]1C(N)=O)[C@@H](C)CC)C(C)C)[C@@H](C)O [Compound 28] (HELM PEPTIDE1{[CCCCCCCCCCCCCCCC(=O)[*:2]].T.V.F.R.S.S.E.P.[dK].R.R.S.A.D.I.F.P.[am]}$$$$V2.0) |  |  | ≥ 80 | 99 | **** (EC50≦25 nM (hAPJ), % IA≧80% and either % histamine>35% or formal (+) charge>1) |  |  |  |  | ≤ 25 | 17 |  | lack of dose-responsive activity | 34.7 |  |  |
